Measurements from US4994488A, “Novel imidate insecticides” (ICI Americas Inc., priority 1989, dated 1991).

Columns and labels:
Type in all cases: in vivo
[1] = system: two-spotted mite [Tetranychus urticae (Koch)], eggs; assay: Two-spotted mite acaricidal test, eggs (2SM-E); settings: percent of test compound in solution; nymphs hatching from eggs; 5-7 days
Procedure: (§1) The compounds in Table 1 above were tested for insecticidal activity using the following testing procedures. LC50 values, based on the results of these tests and calculated according to dosage-mortality curves, are expressed in Table 2.
(§2) Acaricidal Evaluation Test
(§3) The two-spotted mite (2SM) [Tetranychus urticae (Koch)]was employed in tests for miticides. The test procedure was as follows:
(§4) Pinto bean plants (Phaseolus sp.), approximately 10 cm tall, were transplanted into sandy loam soil in small cups and thoroughly infested with two-spotted mites of mixed ages and sexes. Twenty-four hours later the infested plants were inverted and dipped for 2-3 seconds in 50--50 acetone-water solutions of the test compound. Treated plants were held in the greenhouse, and 5-7 days later mortality was determined for both adult mites and the nymphs hatching from eggs which were on the plants at the time of treatment. Test concentrations ranged from 0.05% downward. The LC-50 value is expressed below in Table 2 under the headings "2SM-A" (i.e., adults) and "2SM-E" (i.e. eggs) in terms of percent concentration of the test compound in the solution.

[2] = system: Western Spotted Cucumber Beetle Larvae [Diabrotica undecimpunctata undecimpunctata (Mannherheim)]; assay: Western spotted cucumber beetle larvae soil test (Diabrotica); settings: ppm of test compound in the soil
Procedure: as §1
Western Spotted Cucumber Beetle Larvae[Diabrotica undecimpunctata undecimpunctata (Mannherheim)]
Ten grams of moist potting soil was placed in a plastic cup. The test compound was dissolved in acetone. A 0.05 ml aliquot of the test sample, diluted to the desired concentration, was added to the soil. The cup was capped and the soil was mixed on a vortex mixer for approximately 15 seconds. An indentation was made on the surface of the soil and approximately 50 Diabrotica eggs were added. The eggs were covered with soil and maintained at room temperature (approximately 70° F. or 21° C.). Four days later a section of Romaine lettuce (Latuca sativa) leaf was placed in the treated cups. One week later the cups were examined for live larvae. TEst concentrations ranged from 25 ppm downward. The LC-50 value is expressed below in Table 2 under the heading "Diabrotica" in terms of ppm of the test compound in the soil.

[3] = system: two-spotted mite [Tetranychus urticae (Koch)], adults; assay: Two-spotted mite acaricidal test, adults (2SM-A); settings: percent of test compound in solution, 5-7 days
Procedure: as §1, §2, §3, §4

[4] = system: Tobacco Budworm [Heliothis virescens (Fabricius)], larvae; assay: Tobacco budworm contact test, larvae (TBW-C); settings: percent of test compound in solution; second-instar larvae; 5 days
Procedure: as §1
(§5) Tobacco Budworm [Heliothis virescens (Fabricius)]
(a) Contact: Test compounds were diluted in a 50--50 acetonewater solution. Cotton (Gossypium sp.) cotyledons were immersed in the test solutions for 2-3 seconds and placed on a wire screen to dry. The dried leaves were placed in petri dishes containing a moistened piece of filter paper and infested with 5 second-instar tobacco budworm larvae. The dishes were placed in a high humidity chamber for 5 days, and percent mortality of the larvae recorded. Test concentrations ranged from 0.1% downward. The LC-50 values are expressed below in Table 2 under the heading "TBW-C" in terms of percent of the test compound in the solution.

[5] = system: Tobacco Budworm [Heliothis virescens (Fabricius)], eggs; assay: Tobacco budworm egg test (TBW-E); settings: percent of test compound in solution; 2-day old eggs
Procedure: The compounds in Table 1 above were tested for insecticidal activity using the following testing procedures.
as §5
(b). Eggs: Paper towel patches of 2-day old eggs of the tobacco budworm were dipped in acetone solutions of the test compound and placed in petri dishes containing a portion of larval rearing medium. […] Test concentrations ranged from 0.1% downward. The LC-50 value is expressed below in Table 2 under the heading "TBW-E" in terms of percent of the test compound in the solution.

[6] = system: Beet Armyworm (Spodoptera exigua); assay: Beet armyworm test (BAW); settings: percent of test compound in solution; second-instar larvae; five days
Procedure: as §1
Beet Armyworm (Spodoptera exigua)
Test compounds were diluted in a 50--50 acetone-water solution. Young leaves of sugar beets (Beta vulgaris) were immersed in the test solutions for 2-3 seconds and placed on a wire screen to dry. The dried leaves were placed in petri dishes containing a moistened filter paper and infested with five second-instar beet armyworm larvae. The dishes were placed in a high humidity chamber. Mortality of the larvae was recorded five days later. Test concentrations ranged from 0.1% downward. The LC-50 values are expressed below in Table 2 under the heading "BAW" in terms of percent of the test compound in solution.

| SMILES | LC50 2-SM E (eggs) [1] | LC50 Diabrotica [2] | LC50 2-SM A (adults) [3] | LC50 TBW C (contact) [4] | LC50 TBW E (eggs) [5] | LC50 BAW [6] |
| --- | --- | --- | --- | --- | --- | --- |
| CC1(C(=Nc2ccc(Cl)cc2)OCc2cccc(Oc3ccccc3)c2)CC1 [Compound 1] | > 0.05% | > 25 ppm (soil) | > 0.05% | 0.008% | 0.05% | 0.025% |
| CC1CC1C(=Nc1ccc(Cl)cc1)OCc1cccc(Oc2ccccc2)c1 (stereo not drawn) [Compound 2] | > 0.05% | > 25 ppm (soil) | > 0.05% | – | > 0.01% | – |
| Clc1cccc(N=C(OCc2cccc(Oc3ccccc3)c2)C2CC2)c1 [Compound 3] | > 0.05% | > 25 ppm (soil) | > 0.05% | – | 0.1% | – |
| Clc1ccc(N=C(OCc2cccc(Oc3ccccc3)c2)C2CC2)cc1 [Compound 4, N-(4-Chlorophenyl)-O-(3-phenoxybenzyl)cyclopropylcarboximidate] | 0.05% | > 25 ppm (soil) | 0.01% | 0.006% | 0.1% | – |
| Fc1ccc(N=C(OCc2cccc(Oc3ccccc3)c2)C2CC2)cc1 [Compound 5] | 0.05% | > 25 ppm (soil) | 0.05% | 0.01% | 0.08% | – |
| FC(F)(F)c1ccc(N=C(OCc2cccc(Oc3ccccc3)c2)C2CC2)cc1 [Compound 6] | > 0.05% | 25 ppm (soil) | 0.01% | 0.0015% | 0.025% | – |
| FC(F)(F)Oc1ccc(N=C(OCc2cccc(Oc3ccccc3)c2)C2CC2)cc1 [Compound 7] | 0.01% | 17 ppm (soil) | 0.01% | 0.001% | 0.05% | – |
| FC(F)(F)c1ccc(N=C(OCc2cccc(Oc3ccccc3)c2)C2CC2)c(Cl)c1 [Compound 8] | > 0.05% | 25 ppm (soil) | > 0.05% | 0.1% | > 0.1% | – |
